Results from patent publication US10918891B2, “Cosmetic treatment method for the skin” (SYNTIVIA, priority 2016, dated 2021).

Tests used:
Assay type in all cases: cell-based, human
NHEK cells = test: Cellular viability (WST1) of NHEK exposed to cigarette extract; conditions: (Ia) 10 ppm pretreatment 24 h and treatment 24 h; cigarette extract diluted 1/50; WST1, 450 nm; Control 2.070, Cigarette extract 1.392
Experimental: (§1) The cells used for this example are normal human Fibroblasts (NHDF) and normal human epidermal Keratinocytes (NHEK).
(§2) A cigarette extract is prepared using a laboratory device allowing the sucking up of cigarette smoke via a suction system, and the controlled bubbling of this cigarette smoke into the solution studied, which is then filtered on a 0.22 μm filter made of Polyether sulfone (PES).
(§3) The cells are cultured at the concentration of 7000 cells per well of 96-well plates (NHDF) or 8000 cells per well (NHEK), in the presence of standard culture medium for NHDF or NHEK (for 24 h 37° C., 5% CO2).
(§4) After pretreatment of the cells with the compound (Ia) at 10 ppm for 24 h the cells are treated with the cigarette extract diluted to 1/50th in the culture medium with or without the compound (Ia) at 10 ppm for 24 h. The absorbance is read a first time at […] (Multiskan®).
(§5) Then, 10 μl of WST1 (Roche) are introduced into the medium and the cells are incubated for 3 hours.
(§6) The absorbance at 450 nm is measured after the addition of WST1 (Multiskan®) and the results obtained, in terms of cellular viability, are shown in tables 11 and 12 below. The treated cells (Cigarette extract+(Ia)) are compared to the untreated cells (Control) or to the cells having only undergone exposure to the cigarette extract (Cigarette extract).

[1] = system: NativeSkin® skin explants (Genoskin); test: Breaks in the DNA (γ-H2AX marking) of NativeSkin skin explant ex vivo after UVA irradiation; conditions: composition 0.9 mmol/L topical, 60 J/cm^2 UVA every day for 3 days, n=10 images, FIG. 7
Experimental: The test was carried out on NativeSkin® skin explants (Genoskin), a biopsy of skin bathed in a solid, nourishing matrix while its epidermal surface is preserved in contact with the air. The biopsy is firmly anchored in the matrix and sealed in order to prevent any lateral diffusion of formulation intended for topical application.
The study was carried out on a donor (phototype 2) under the following conditions.
The compounds tested are implemented in a composition containing them at 0.9 mmol/L in a mixture of Carbopol® (0.5% p/p), DMSO (0.1% p/p) and H2O (qsp 100%).
The samples are irradiated at 60 J/cm^2 UVA every day for 3 days. A treatment is carried out for 24 h before the irradiation, by application of the composition tested onto the sample (deposition of 40 μl of composition onto the stratum corneum), then a post-treatment of 24 h after the irradiation, in the same manner.
A Control of the sample of skin non-irradiated and a Control of the sample of skin irradiated are also carried out, both with application of the vehicle alone (0.5% Carbopol®, 0.1% DMSO, H2O). The Control of the non-irradiated sample of skin is introduced into the irradiator in a sheet of aluminium, in such a way as to protect it against UVs.
The samples are sampled, cut (according to the conventional method of cryo-sectioning implementing paraffin and freezing) and fixed in 1 ml of formalin for 24 h.
The explants are then included in paraffin and sections of 5 μm are made.
The slides obtained are also marked by immunohistochemistry with the biomarker γ-H2Ax.
The analysis of the marking is carried out with a DM5000B fluorescence microscope (Leica Microsystems) and 10 images are acquired for each sample.
For the marking with γ-H2Ax, for each image, the total number of nuclei is detected with 4′,6-diamidino-2-phenylindole (dapi). In the same image, the number of nuclei having the marking is quantified. The ratio of the number of positive nuclei, multiplied by 100, to the number of total nuclei, is calculated, in order to obtain a percentage (=(positive nuclei*100)/total nuclei), n=10 per sample.
A statistical analysis is carried out with a student's test by comparing the samples to the control (p value[…], p value<0.05**, p value<0.005***, ns not significant).

NHDF cells = test: Cellular viability (WST1) of NHDF exposed to cigarette extract; conditions: (Ia) 10 ppm pretreatment 24 h and treatment 24 h; cigarette extract diluted 1/50; WST1, 450 nm; Control 1.618, Cigarette extract 1.357
Experimental: as §1, §2, §3, §4, §5, §6

Sirtuin-6 = test: Gene expression of Sirtuin-6 by real-time quantitative PCR in NHDF
Experimental: The cells used for this example are normal human Fibroblasts (NHDF) The cells are inoculated in 96-well plates at a concentration of 10000 cells per well.
The contact with the compound tested is carried out for 24 h. After the 24 h contact, the supernatant is eliminated and the cells are collected in a lysis solution in order to extract the mRNA. The mRNA is reverse transcribed into DNA then quantified by real-time quantitative PCR.

TNFα = test: Gene expression of TNFα by quantitative RT-PCR in NHEK; conditions: (Ia) 3 ppm (10^−5M), 24 hours
Experimental: In these examples, the expression of the messenger RNA is measured by the technique of quantitative RT-PCR (reverse transcription followed by polymerase chain reaction), after incubation in vitro of the various cell types in the absence or in the presence of compound (Ia).
This study was carried out on normal human dermal Fibroblasts (NHDF) or normal human epidermal Keratinocytes (NHEK). The compound (Ia) is tested at 10^−5M in an aqueous solution with 0.1% dimethylsulfoxide.
The cells are cultured at the concentration of 10,000 cells per well of 96-well plates, in the presence of standard culture medium according to the cell type.
The compound (Ia) is then added at the concentration (3 ppm), for 24 hours.
The supernatant is eliminated and the cells are taken up in a specific buffer for the extraction of the messenger RNA (mRNA). The mRNA is purified and reverse transcribed in the presence of a commercial reverse transcriptase.
The complementary DNA (cDNA) obtained is quantified by RT-PCR, by means of suitable primers. The rate of expression of the mRNA is normalised with 5 reference genes.
The cells used for this example are normal human keratinocytes (NHEK).

Cc1ncc(CO)c(CNC(=O)/C=C/c2ccc(O)c(O)c2)c1O [Compound (Ia)]
Cellular viability on NHEK (Optical density) (NHEK cells): 2.589 Optical density
percentage of nuclei positive for marking with γ-H2AX, compared with controls [1]: clearly reduced with respect to the irradiated control sample
Cellular viability on NHDF (Optical density) (NHDF cells): 1.674 Optical density
Gene expression of the sirtuin-6 compared to the basal level based on 100% (Sirtuin-6; 24 h contact): 166%
stimulation of the expression of the gene of the Sirtuin-6 with respect to the untreated control (Sirtuin-6; see Example 13): 66%
Reduction of the gene expression compared to the basal level based on 100% (TNFα) (TNFα): −45%
